This experiment has as its system HEK293T cells carrying the ATF4 luciferase reporter. In words: ATF4-Luc assay (in vitro model of VWMD). The class given is cell-based, human. Particulars: Homo sapiens, HEK-293T, 1 μg/mL tunicamycin, 7 hours, One Glo luminescence. The method in brief: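 Stable HEK293T line expressing firefly luciferase behind the human ATF4 5′-UTR, treated with 1 μg/mL tunicamycin plus compound for 7 hours. Luminescence read with One Glo; EC50 determined.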

Take `O=C(NC12CC(n3cc(C4CCC4)cn3)(C1)C2)[C@@H]1C[C@@H](O)c2cc(Cl)ccc2O1` [Compound 291, (2S,4R)-6-chloro-N-[3-(4-cyclobutyl-1H-pyrazol-1-yl)bicyclo[1.1.1]pentan-1-yl]-4-hydroxy-3,4-dihydro-2H-1-benzopyran-2-carboxamide]: the EC50 lay within 500 to 2000 nM.

Consider `O=C(NC12CC(c3ncc(-c4ccc(Cl)c(F)c4)o3)(C1)C2)[C@H]1C[C@@H](O)c2cc(Cl)ccc2O1` [Compound 270, (2R,4R)-6-chloro-N-{3-[5-(4-chloro-3-fluorophenyl)-1,3-oxazol-2-yl]bicyclo[1.1.1]pentan-1-yl}-4-hydroxy-3,4-dihydro-2H-1-benzopyran-2-carboxamide], for which the EC50 is < 10 nM. Regarding `O=C(CO[C@H]1C[C@@H](OC(F)(F)F)C1)N[C@H]1C[C@H]2C[C@@H]1C[C@@H]2NC(=O)[C@H]1C[C@@H](O)c2cc(Cl)ccc2O1` (relative stereo) [Compound 210, (2R,4R)-6-chloro-4-hydroxy-N-[(1R*,2S*,4R*,5S*)-5-(2-{[cis-3-(trifluoromethoxy)cyclobutyl]oxy}acetamido)bicyclo[2.2.1]heptan-2-yl]-3,4-dihydro-2H-1-benzopyran-2-carboxamide], the 50% effective concentration (EC50) was < 10 nM.

Regarding `O=C(NC12CCC(NC(=O)[C@H]3C[C@@H](OC(F)(F)F)C3)(CC1)[C@@H](O)C2)c1cc(=O)c2cc(Cl)ccc2o1` [Compound 146, 6-chloro-N-[(3S)-3-hydroxy-4-{[(1s,3R)-3-(trifluoromethoxy)cyclobutane-1-carbonyl]amino}bicyclo[2.2.2]octan-1-yl]-4-oxo-4H-1-benzopyran-2-carboxamide], the EC50 is 250 to 500 nM.

As for `O=C(CO[C@H]1C[C@@H](OC(F)(F)F)C1)N[C@H]1CC[C@H](C(=O)NCc2ccc(C(F)(F)F)cn2)CC1` [Compound 158, (1r,4r)-4-(2-{[(1s,3s)-3-(trifluoromethoxy)cyclobutyl]oxy}acetamido)-N-([5-(trifluoromethyl)pyridin-2-yl]methyl)cyclohexane-1-carboxamide], the half-maximal effective concentration (EC50) was > 2000 nM. The result for `O=C(COc1ccc(Cl)c(F)c1)NC1CC2(C1)CN(C(=O)[C@@H]1C[C@H](O)c3cc(Cl)ccc3O1)C2` (racemic) [Compound 145, 2-(4-chloro-3-fluorophenoxy)-N-{2-[rac-(2R,4R)-6-chloro-4-hydroxy-3,4-dihydro-2H-1-benzopyran-2-carbonyl]-2-azaspiro[3.3]heptan-6-yl}acetamide] reads 50 to 250 nM; that for `O=C(NC12CC(n3cc(C4CCC4)cn3)(C1)C2)[C@H]1C[C@@H](O)c2cc(Cl)ccc2O1` [Compound 290, (2R,4R)-6-chloro-N-[3-(4-cyclobutyl-1H-pyrazol-1-yl)bicyclo[1.1.1]pentan-1-yl]-4-hydroxy-3,4-dihydro-2H-1-benzopyran-2-carboxamide], 50 to 250 nM.

On to `O=C(NC12CC(n3cc(-c4ccc(Cl)cc4)cn3)(C1)C2)[C@@H]1C[C@@H](O)c2cc(Cl)ccc2O1` [Compound 236, (2S,4R)-6-chloro-N-{3-[4-(4-chlorophenyl)-1H-pyrazol-1-yl]bicyclo[1.1.1]pentan-1-yl}-4-hydroxy-3,4-dihydro-2H-1-benzopyran-2-carboxamide], for which the half-maximal effective concentration (EC50) was < 10 nM. The result for `O=C(N[C@H]1CC[C@H](C(=O)NCc2ccc(C(F)(F)F)cn2)CC1)[C@@H]1C[C@@H](O)c2cc(Cl)ccc2O1` [Compound 172, (2S,4R)-6-chloro-4-hydroxy-N-[trans-4-({[5-(trifluoromethyl)pyridin-2-yl]methyl}carbamoyl)cyclohexyl]-3,4-dihydro-2H-1-benzopyran-2-carboxamide] reads 10 to 50 nM; that for `O=C(CO[C@H]1C[C@@H](OC(F)(F)F)C1)NC12CCC(NC(=O)[C@H]3CC(=O)c4cc(Cl)ccc4O3)(CC1)C[C@@H]2O` [Compound 115, (2R)-6-chloro-N-[(3S)-3-hydroxy-4-(2-{[(1s,3R)-3-(trifluoromethoxy)cyclobutyl]oxy}acetamido)bicyclo[2.2.2]octan-1-yl]-4-oxo-3,4-dihydro-2H-1-benzopyran-2-carboxamide], < 10 nM.

Values taken from patent US20200347043A1, “MODULATORS OF THE INTEGRATED STRESS PATHWAY” (Calico Life Sciences LLC, priority 2019, published 2020).
